From publication PMC10067601, “Identification of a peptide ligand for human ALDH3A1 through peptide phage display: Prediction and characterization of protein interaction sites and inhibition of ALDH3A1 enzymatic activity” (Frontiers in Molecular Biosciences, 2023)
“Also recorded” adds a separate entry of the source.

Legend:
[1] = target: T1, human recombinant ALDH3A1 (Homo sapiens, UniProt P30838); experiment: ALDH3A1 enzymatic assay, benzaldehyde oxidation; format: biochemical; settings: for Enzymatic Activity, AVERAGE %: mean of triplicates, STDEV % in r34
T1 construct: 6xHis (C); made in house; host or cells: E. coli, with chaperone co-expression (pG-KJE8 plasmid)
T1 sequence (P30838 1-453): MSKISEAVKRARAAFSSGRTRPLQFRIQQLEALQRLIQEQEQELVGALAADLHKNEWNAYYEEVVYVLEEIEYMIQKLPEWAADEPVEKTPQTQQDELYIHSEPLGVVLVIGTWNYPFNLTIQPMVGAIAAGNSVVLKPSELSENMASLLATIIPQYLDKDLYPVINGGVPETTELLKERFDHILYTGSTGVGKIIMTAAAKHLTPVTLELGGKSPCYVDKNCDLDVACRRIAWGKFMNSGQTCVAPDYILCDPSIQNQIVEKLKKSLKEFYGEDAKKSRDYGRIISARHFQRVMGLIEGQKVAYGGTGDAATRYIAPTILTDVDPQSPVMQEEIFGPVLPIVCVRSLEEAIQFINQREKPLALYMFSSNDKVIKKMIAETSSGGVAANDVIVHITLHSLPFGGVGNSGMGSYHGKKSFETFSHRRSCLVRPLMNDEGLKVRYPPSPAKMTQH
Description: The ability of ALDH3A1 to oxidize benzaldehyde in the presence of P1 was estimated by monitoring the production of NADH as described earlier with minor modifications ([Voulgaridou et al., 2013]). Human recombinant ALDH3A1 was combined with P1 and diluted in Milli-Q water, at 1:1,000. The final reaction was placed in a 0.5 mL quartz cuvette containing 50 mM Tris-HCl pH 8.5, 50 mM 2-Mercaptoethanol, 1.5 mM […], 20 nM ALDH3A1, 20 μM P1, and 1 mM Benzaldehyde. The reaction was initiated by the addition of the benzaldehyde substrate and was monitored at 340 nm for 5 min using a spectrophotometer (Libra S22, Biochrom Ltd, Cambridge, United Kingdom). In the case of CB29, the final reaction contained 40 μM CB29. Enzymatic activity was calculated as dOD/dT∗molarextinctioncoeiffcient∗pathcorrection∗enzyme^′sconcentrationinfinalreaction where, dT = minutes, molar extinction coefficient = 6220 M^-1/cm, path correction = 1 cm.
All experiments were conducted in triplicates and presented as % of the control’s enzymatic activity. As a control, the final reaction contained the respective Milli-Q water volume without P1 or CB29.
At least three independent experiments were performed for each condition tested. The values are expressed as the mean ± standard deviation (SD). Statistical analysis was performed with Graph Pad Prism software (version 9.4.1) (Graph Pad Inc., La Jolla, CA, United States). For all assays, statistical differences between groups were evaluated either by Student’s t-test or ANOVA, for multiple comparisons, followed by Dunnett’s or Tukey’s test. A level of p < 0.01 was considered statistically significant.

[2] = target: T1, human recombinant ALDH3A1; experiment: Peptide ELISA, P1 coated, serially diluted ALDH3A1; format: binding
Description: An ELISA with the synthetic peptide P1 was performed as described ([Thermo Scientific, 2010]). P1 (50 μg/mL) diluted in Coating Buffer (0.2 M sodium carbonate/bicarbonate, pH 9.4) was coated overnight at 4°C under agitation. After three washes with TBST (25 mM Tris, 0.15 M sodium chloride, pH 7.2 containing 0.1% Tween 20), the wells were blocked with 300 μL per well with Blocking Buffer (TBST containing 4% w/v BSA) overnight at 4°C under agitation. After another three washes with TBST, 100 μL of 2-fold serial dilutions of ALDH3A1 in Blocking Buffer were added in each well and the plate was incubated for 1 h at RT under gentle agitation. Following four washes with TBST, 100 μL of rabbit anti-ALDH3A1 antibody, diluted 1:1,000 in Blocking Buffer, were added and the plate was incubated for 2 h at RT under gentle agitation. After the plate was washed 4 times with TBST, it was incubated with 100 μL of anti-rabbit IgG horseradish-peroxidase conjugated and diluted 1:5,000 in Blocking Buffer, for 2 h at RT. Then, the plate was washed 6 times with TBST, and 100 μL of ABTS [2,2′-azino-bis(3-ethylbenzothiazoline-6-sulfonic acid)] solution (ready-to-use) were added. After 1 h of incubation in darkness at RT under agitation, the plate was measured at 405 nm, with wavelength correction at 650 nm, using an ELISA plate reader (EnSpire Multimode Plate Reader, Perkin Elmer, Waltham, MA, United States). During wash steps, liquids were dispersed in the sink, the plate was tapped vigorously on a paper towel, refilled with Wash Buffer, and incubated for 5 min at RT under agitation.
Next, peptide ELISA was performed to test whether the synthetic peptide P1 interacts with the hALDH3A1 protein. Specifically, P1 was coated in abundance in a 96-well plate and subsequently, hALDH3A1 was added to each well in serial dilutions. For detecting the putative peptide/ALDH3A1 interaction a rabbit anti-ALDH3A1 antibody along with a secondary horseradish peroxidase-conjugated anti-rabbit antibody were used in a sandwich ELISA. In each step, the excessive, unbound ALDH3A1 or antibody was removed through repetitive washes, while a ready-to-use ABTS solution was used as a colorimetric substrate for detecting the presence of horseradish peroxidase activity.

[3] = 20 μM P1 (n = 4) or 40 μM CB29 (n = 3)
[4] = X is log(dilution of ALDH3A1), P1 50 μg/ml coated

## WPTYVSPFRSPP [P1, …, prevailing 12-mer phage display peptide, synthesised by Genecust]
[1]; 20 μM P1 (4 experiments) or 40 μM CB29 (3 experiments), 1 mM benzaldehyde, 20 nM ALDH3A1, pH 8.5, 340 nm, 5 min
  Enzymatic activity, % of control, AVERAGE of experiments: 53.6795%
[1]; [3]
  25% Percentile, % of control activity: 48.44
  75% Percentile, % of control activity: 60.33
  Lower 95% CI of mean, % of control activity: 43.07
  Maximum, % of control activity: 63.01
  Mean, % of control activity: 53.68
  Median, % of control activity: 52.27
  Minimum, % of control activity: 47.18
  Upper 95% CI of mean, % of control activity: 64.29
[1]; 20 μM P1, 20 nM ALDH3A1, 1 mM benzaldehyde, 50 mM Tris-HCl pH 8.5, 50 mM 2-mercaptoethanol, NADH at 340 nm, 5 min, vs control
  Reduction in hALDH3A1 activity against benzaldehyde: ~50%
[1]; 20 μM P1, P1 Experiment 1, mean of n = 3, 1 mM benzaldehyde, 20 nM ALDH3A1, pH 8.5, 340 nm
  Enzymatic activity, % of control (Mean%): 52.2857%
[1]; 20 μM P1, P1 Experiment 2, mean of n = 3, 1 mM benzaldehyde, 20 nM ALDH3A1, pH 8.5, 340 nm
  Enzymatic activity, % of control (Mean%): 63.0078%
[1]; 20 μM P1, fourth experiment line of Sheet6, mean of n = 3, 1 mM benzaldehyde, 20 nM ALDH3A1, pH 8.5, 340 nm
  Enzymatic activity, % of control (Mean%): 47.1765%
[1]; 20 μM P1, third experiment line of Sheet6, mean of n = 3, 1 mM benzaldehyde, 20 nM ALDH3A1, pH 8.5, 340 nm
  Enzymatic activity, % of control (Mean%): 52.2481%
[1]; 20 μM P1 vs 40 μM CB29, benzaldehyde
  Effectiveness of inhibition compared with CB29: comparable to the inhibition capacity of the known hALD3A1 inhibitor CB29; also recorded: comparable with the inhibition caused by the CB29 molecule
[1]; Dunnett's multiple comparisons, 20 μM P1 or 40 μM CB29
  95,00% CI of diff, control vs. compound: 37,24 to 55,40
[1]; Dunnett's multiple comparisons, 20 μM P1 or 40 μM CB29, % of control activity
  Mean Diff, control vs. compound: 46.32
[1]; Experiment 3, 20μM P1, % of control (control = 100)
  Enzymatic Activity, AVERAGE %: 52.2481%
[1]; Experiment 3, 20μM P1, mean of triplicates, STDEV in r31
  Enzymatic Activity, AVERAGE of triplicates: 7.566 µmol/min/mg
[1]; Experiment 4, 20μM P1, % of control (control = 100)
  Enzymatic Activity, AVERAGE %: 47.1765%
[1]; Experiment 4, 20μM P1, mean of triplicates, STDEV in r31
  Enzymatic Activity, AVERAGE of triplicates: 9.945 µmol/min/mg
[1]; P1 Experiment 1, 20 μM, mean of n = 3
  Enzymatic Activity, AVERAGE of triplicates: 7.9584 µmol/min/mg
[1]; P1 Experiment 2, 20 μM, mean of n = 3
  Enzymatic Activity, AVERAGE of triplicates: 11.9878 µmol/min/mg
[2]; 4PL fit, P1 50 μg/ml coated
  Bottom, 95% CI (profile likelihood): -0,6000 to 0,3171
  HillSlope, 95% CI (profile likelihood): 0,7500 to 2,101
  LogIC50, 95% CI (profile likelihood): -2,813 to -1,638
  R squared (4PL fit): 0.9777
  Top, 95% CI (profile likelihood): 0,5633 to 0,6007
[2]; P1 50 μg/mL coated, 2-fold serial dilutions of ALDH3A1, 405 nm-650 nm
  Binding of P1 to ALDH3A1: ALDH3A1 dose-dependent increase in absorbance was observed, indicating the specific binding of P1 to ALDH3A1; also recorded: confirmed the interaction of ALDH3A1 with the synthetic peptide P1 in a concentration-dependent manner
[2]; Sigmoidal, 4PL, X is log(dilution of ALDH3A1), P1 50 μg/ml coated
  Bottom (4PL fit): 0.2386
[2]; Sigmoidal, 4PL, X is log(dilution of ALDH3A1), P1 50 μg/ml coated, OD 405nm - 650nm
  Top (4PL fit): 0.5773
[2]; [4]
  HillSlope (4PL fit): 1.408
  LogIC50 (4PL fit): -1.813
  Span (4PL fit): 0.3387
